This note sets out measurements from ChEMBL document CHEMBL1201862, “PubChem BioAssay data set” (2004).

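In this assay, cells in 96-well plates receive the compound at five concentrations for 48 hours. Endpoints are linearly interpolated between the surrounding concentrations. GI50 marks 50% less growth.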 Activity calls are given as the source filed them. Cut-off read from the data, not from the text of the source: active = GI50 up to about 1.1 µM and inactive = higher. Where only a bound is given, the exact number is not on record here.

Test systems include HCT-116; HCT-15; HT-29; M14; NCI-H460; OVCAR-8; RPMI-8226; SF-268; SF-295; SK-MEL-28; SW-620; TK-10; U-251; UACC-257; UO-31; HOP-92; Malme-3M; NCI-H23; OVCAR-3.
What all share (experiment): growth of human tumour cells (NCI), 48 h

For the molecule `COc1ccc(C(=O)/C=C/c2ccc(OCCCCCCCCCCOc3ccc(/C=C/C(=O)c4ccc(OC)c(OC)c4)cc3)cc2)c(OC)c1`, the GI50 is > 100 µM (inactive) with HCT-116; above 100 µM in the test with HCT-15; > 100 µM (inactive) in the test with HT-29; > 100 µM (inactive) with M14; > 100 µM (inactive) with NCI-H460; > 100 µM (inactive) in the test on OVCAR-8. Further, the GI50 in the test on RPMI-8226, with SF-268, in the test on SF-295, in the test with SK-MEL-28, in the test on SW-620 and with TK-10 was > 100 µM (inactive) throughout. Moreover, the GI50 with U-251, in the test on UACC-257 and with UO-31 was > 100 µM (inactive) in each case.
For the molecule `Cc1nc2c(n1CC(C)C)C(=O)c1ccccc1C2=O`, the GI50 was 20.8 µM (inactive) with HCT-116; 37.5 µM with HCT-15; 10.4 µM (inactive) in the test with HOP-92; 34 µM (inactive) in the test on HT-29; 61.7 µM (inactive) in the test on M14; 20.6 µM (inactive) in the test on Malme-3M. The GI50 was 18 µM (inactive) in the test with NCI-H23; 23.4 µM (inactive) in the test with NCI-H460; 25.4 µM (inactive) with OVCAR-3; 35.5 µM (inactive) in the test on OVCAR-8; 42.8 µM (inactive) in the test with SF-268; 39.2 µM (inactive) in the test with SF-295. The GI50 in the test with SK-MEL-28 is 67.9 µM (inactive); in the test with SW-620, 41.1 µM (inactive); with TK-10 it was > 100 µM (inactive); in the test with U-251, 38.6 µM (inactive); in the test with UACC-257, 17.7 µM (inactive); in the test on UO-31, 26.5 µM (inactive).
On to `CC(Oc1cc2oc(=O)cc(-c3ccccc3)c2cc1Cl)C(=O)O` (centres undefined), for which the GI50 with HCT-116, in the test on HOP-92, with HT-29, with M14, in the test on Malme-3M and in the test with NCI-H23 was > 100 µM (inactive) each time. For the same molecule, the GI50 in the test on NCI-H460, in the test with OVCAR-3, in the test with OVCAR-8, in the test on SF-268, with SF-295 and in the test on SK-MEL-28 was > 100 µM (inactive) throughout. Further, the GI50 with SW-620, with TK-10, in the test with U-251, in the test on UACC-257 and in the test on UO-31 was > 100 µM (inactive) throughout.
For the molecule `C/C=C(/I)CBr`, the GI50 in the test with HCT-116 was 13.9 µM (inactive); in the test on HCT-15 it was 18.2 µM; in the test on HOP-92 it was 15.3 µM (inactive); with M14, 13.8 µM (inactive); with Malme-3M it was 16 µM (inactive); with NCI-H23 it was 16.7 µM (inactive). The GI50 is 18.9 µM (inactive) in the test on NCI-H460; 19.4 µM (inactive) in the test on OVCAR-8; 10.4 µM (inactive) in the test with RPMI-8226; 23.6 µM (inactive) in the test on SF-268; 21 µM (inactive) in the test on SK-MEL-28; 13.6 µM (inactive) in the test on SW-620. The GI50 is > 10 µM (inactive) with TK-10, > 10 µM (inactive) with U-251 and 18.9 µM (inactive) with UO-31.
For the molecule `CC(C(=O)n1c2ccccc2c2ccccc21)N(c1ccccc1)c1ccccc1` (centres undefined), the GI50 with HCT-116 is 18.7 µM (inactive); in the test on HCT-15, 17 µM; in the test on HT-29, 19.5 µM (inactive); with M14, 16.7 µM (inactive); in the test on Malme-3M it was 15.1 µM (inactive); with NCI-H23, 18.9 µM (inactive). For the same molecule, the GI50 with NCI-H460 is 34.6 µM (inactive); in the test on OVCAR-3 it was 17.8 µM (inactive); in the test with OVCAR-8, 18.6 µM (inactive); with RPMI-8226, 16.3 µM (inactive); in the test on SF-268 it was 19.3 µM (inactive); in the test on SF-295 it was 19.4 µM (inactive). Besides, the GI50 is 19.1 µM (inactive) in the test with SK-MEL-28; 19.8 µM (inactive) in the test on SW-620; 20 µM (inactive) in the test on TK-10; 17.8 µM (inactive) in the test on U-251; 17.9 µM (inactive) in the test with UACC-257; 20.6 µM (inactive) with UO-31.
With `Nc1nc(N)c(N=O)c(Nc2ccc(Br)cc2)n1`, the GI50 was 13.3 µM (inactive) in the test with HCT-116; 15.3 µM in the test on HCT-15; 15.4 µM (inactive) in the test on HOP-92; 15.8 µM (inactive) in the test on HT-29; 16.2 µM (inactive) with M14; 13.3 µM (inactive) in the test on Malme-3M. Moreover, the GI50 is 23.4 µM (inactive) in the test on NCI-H23; 26.5 µM (inactive) in the test with NCI-H460; 13.1 µM (inactive) with OVCAR-3; 27.2 µM (inactive) in the test with OVCAR-8; 12.9 µM (inactive) in the test on SF-268; 29 µM (inactive) with SF-295. The GI50 was 16.6 µM (inactive) in the test with SK-MEL-28; 33.5 µM (inactive) in the test with SW-620; 29.1 µM (inactive) in the test on TK-10; 15.9 µM (inactive) with U-251; 15.6 µM (inactive) in the test with UACC-257.
With `CC1=NN=C(NCCN(C)C)C/C1=C/c1ccccc1Cl`, the GI50 with HCT-116 was > 100 µM (inactive); in the test with HCT-15, above 100 µM; in the test with HT-29, 45.1 µM (inactive); with M14 it was 39.4 µM (inactive); with Malme-3M, 27.6 µM (inactive); with NCI-H23 it was > 100 µM (inactive). For the same molecule, the GI50 with NCI-H460 was > 100 µM (inactive); with OVCAR-3, > 100 µM (inactive); with OVCAR-8, > 100 µM (inactive); with SF-268 it was > 100 µM (inactive); with SF-295, > 100 µM (inactive); with SK-MEL-28 it was 59.2 µM (inactive). For the same molecule, the GI50 in the test with SW-620 is > 100 µM (inactive); with TK-10, > 100 µM (inactive); with U-251, > 100 µM (inactive); with UACC-257, 23.5 µM (inactive); with UO-31 it was > 100 µM (inactive).
Take `C=CCOC(C)n1c(C)cc(=O)n(C(C)OCC=C)c1=O` (centres undefined): the GI50 in the test on HCT-116 was > 100 µM (inactive); in the test on HCT-15 it was above 100 µM; with HOP-92, 72.1 µM (inactive); in the test with HT-29, > 100 µM (inactive); with M14, > 100 µM (inactive); with Malme-3M, > 100 µM (inactive). Also, the GI50 with NCI-H23, in the test on OVCAR-8, in the test with RPMI-8226, in the test on SF-268, in the test with SF-295 and in the test with SK-MEL-28 was > 100 µM (inactive) throughout. Moreover, the GI50 in the test with SW-620, in the test with U-251, in the test on UACC-257 and with UO-31 was > 100 µM (inactive) in each case.
For `CS/C(=N\C(=S)Nc1ccccc1)Nc1ccccc1`, the GI50 with HCT-116 was > 10 µM (inactive); in the test with HCT-15, 17.9 µM; in the test on HT-29, 6.37 µM (inactive); in the test with M14, 21.4 µM (inactive); with Malme-3M, 15.2 µM (inactive); with NCI-H23, 29.4 µM (inactive). Also, the GI50 was 12 µM (inactive) in the test on NCI-H460; 21 µM (inactive) with OVCAR-3; 25.4 µM (inactive) in the test with OVCAR-8; 12.8 µM (inactive) in the test on RPMI-8226; 25.6 µM (inactive) in the test with SF-268; 21.5 µM (inactive) with SF-295. Moreover, the GI50 in the test with SK-MEL-28 is 15 µM (inactive); in the test with SW-620 it was 23.1 µM (inactive); in the test with TK-10, 14.2 µM (inactive); in the test on U-251, 19.8 µM (inactive); in the test on UACC-257, > 10 µM (inactive); with UO-31, 11.6 µM (inactive).
On to `COC(=O)C(CCCC1(c2ccccc2)OCCO1)C(C)=O` (centres undefined), for which the GI50 in the test with HCT-116 is > 100 µM (inactive); in the test with HCT-15 it was above 100 µM; in the test with HT-29, > 100 µM (inactive); in the test on M14, > 100 µM (inactive); in the test on Malme-3M, > 100 µM (inactive); with NCI-H23, > 100 µM (inactive). In addition, the GI50 in the test on NCI-H460, in the test with OVCAR-3, in the test on OVCAR-8, in the test on SF-268, with SF-295 and with SK-MEL-28 was > 100 µM (inactive) in each case. The GI50 is > 100 µM (inactive) in the test on SW-620; > 100 µM (inactive) with TK-10; > 100 µM (inactive) in the test on U-251; 90.2 µM (inactive) in the test with UACC-257; > 100 µM (inactive) in the test on UO-31.
On to `Cc1ccc(C)c(N2C(=O)C(=O)C(c3nc4ccccc4o3)/C(=N/N)C2=O)c1` (centres undefined), for which the GI50 in the test on HCT-116 was > 100 µM (inactive); with HCT-15, above 100 µM; in the test with HOP-92, > 100 µM (inactive); with HT-29, > 100 µM (inactive); in the test on M14 it was > 100 µM (inactive); in the test with Malme-3M it was > 100 µM (inactive). Besides, the GI50 in the test on NCI-H23, with NCI-H460, in the test with OVCAR-3, with OVCAR-8, with SF-268 and in the test with SF-295 was > 100 µM (inactive) in each case. The GI50 in the test with SK-MEL-28, in the test on SW-620, in the test with TK-10, in the test with U-251, with UACC-257 and in the test with UO-31 was > 100 µM (inactive) in each case.
`CC1NOC(=O)C1/N=N/c1cccc(Cl)c1` (centres undefined): the GI50 was 31.7 µM (inactive) with HCT-116; 17.7 µM with HCT-15; 26.4 µM (inactive) in the test on HOP-92; 27.4 µM (inactive) with HT-29; 62.2 µM (inactive) with M14; 29.7 µM (inactive) in the test on Malme-3M. The GI50 is 99.5 µM (inactive) in the test with NCI-H23; 31.2 µM (inactive) in the test with NCI-H460; 22.5 µM (inactive) with OVCAR-3; 44.8 µM (inactive) with OVCAR-8; 23.1 µM (inactive) in the test on SF-268; 34 µM (inactive) in the test on SF-295. Moreover, the GI50 is 43.9 µM (inactive) with SK-MEL-28; 10 µM (inactive) in the test on SW-620; 42.8 µM (inactive) in the test on TK-10; 25.2 µM (inactive) with U-251; 29 µM (inactive) in the test on UACC-257; 35.6 µM (inactive) in the test with UO-31.
